Assay results as given in patent US9822136B2, “Chemical inhibitors of sebocyte function” (priority 2016, dated 2017).
Entries after “also recorded” stand apart in the source; their conditions may differ.

Legend:
cloned hTRPM8 channel = biological target: T1, cloned hTRPM8 channel (Homo sapiens, UniProt Q7Z2W7); assay: TRPM8 activation, FLIPR calcium assay in CHO cells; format: cell-based; conditions: for Relative Potency to I-menthol: TRPM8 EC50 relative to I-menthol
T1 construct: host or cells: CHO cells
Procedure: The in vitro effects of test articles were first evaluated on cloned hTRPM8 channel. […] The test cells were Chinese Hamster Ovary (CHO) cells stably transfected with human TRPM8 cDNAs. […] Substances were evaluated at 8 concentrations (0.03 to 300 μM) with n=4 replicates per determination. For Fluorescence Imaging Plate Reader ([…]″) assay, cells were plated in 384-well black wall, flat clear-bottom microtiter plates (Type: BD Biocoat Poly-D-Lysine Multiwell Cell Culture Plate) at approximately 30,000 cells per well. Cells were incubated at 37° C. overnight to reach a near confluent monolayer appropriate for use in a fluorescence assay. The test procedure was to remove the growth media and to add 40 μL of HBPS containing Fluo-8 for 30 minutes at 37° C. 10 μL of test compound, vehicle, or control solutions in HBPS were then added to each well and read for 4 min using a Fluo-8 calcium kit and the […]″ instrument (Molecular Devices, Sunnyvale, California). […] J. Neurosci.
Concentration-response data were analysed via the FLIPR Control software that is supplied with the FLIPR System (MDS-AT) and fitted to a Hill equation of the following form: Response=Base+(Max−Base)/1+(xhalf/x)^rate, where: “Base” is the response at low concentrations of test compound; “Max” is the maximum response at high concentrations; “xhalf” is the EC50 (the concentration of test compound producing half-maximal activation); and “rate” is the Hill coefficient. Nonlinear least squares fits were made assuming a simple one-to-one binding model.

zygomatic/forehead skin = assay: Cooling sensation after application to zygomatic/forehead skin; format: in vivo, human; conditions: for Sensory Quality / Duration / Onset: 20 mg/mL in distilled water; for Duration: offset minus onset; for Onset: time to reach 2 units of coolness; for Duration of localized cooling and refreshing sensations: forehead skin, 20 mg/mL, 0.08 to 0.15 mL
Procedure: When certain Dapa compounds are applied to the zygomatic and forehead skin, sensations of coolness/cold are felt and can be graded in intensity [Wei. 1-Di-isopropyl-phosphinoyl-alkanes as topical agents for the treatment of sensory discomfort. US 2015/0164924]. For example, one can rate the sensation as 0, 1, 2, or 3 with: 0 as no change; 1 as slight coolness, or cold; 2 as clear-cut signal of coolness or cold; and 3 as strong cooling or cold. The intervals for recording are 5 to 15 minutes, until at least two successive zeroes are obtained. The onset of drug action is taken as the time to reach 2 units of coolness intensity. The active compounds here, e.g, 1-7 produce cooling with 1 min after application. The duration of Dapa-compound action is defined as the offset time minus the onset time. The offset of drug action is defined here as the time when coolness intensity drops below 2, after previously surpassing 2 units.
Test compounds were applied to the skin of the forehead and zygomatic using cotton gauze (0.4 g, rectangular, 50 mm×60 mm; from CS-being, Daisan Cotton, Japan). The test compounds were used at a concentration of 20 mg/mL in distilled water. From the data shown above, it can be seen that, among these compounds, 1-7 and 1-8 evoked cool/cold on zygomatic/forehead skin.

sebocytes [1] = assay: Sebocyte viability, MTT assay; format: cell-based, human; conditions: for Sebocyte cell viability as % of controls (FIG. 3): concentrations in mM, 1-8 at 1 mM; for Activity relative to 1-8 in the MTT sebocyte assay: FIG. 4; for Sebocyte cell viability as % of controls (FIG. 4): at 0.10 μM
Procedure: (§1) The activities of 1-7 and 1-8 on an immortalized sebocyte cell line were examined in the laboratory of Prof Im Myung using methods previously described [Im et al. Epigallocatechin-3-gallate suppresses IGF-I-induced lipogenesis and cytokine expression in SZ95 sebocytes. J. Invest. Dermatol. 132, 2700-8 (2012)]. Proliferation of the sebocytes was measured using the MTT assay, by examination of micrographs of the cells in culture, and ^3H-thymidine incorporation. The effects of the test agents on lipogenesis were further studied by Oil Red O staining and analysis of the lipid composition of the cells. Studies were also conducted on signaling pathways for lipogenesis [PPAR and SREBP-1, Trivedi et al. Peroxisome proliferator-activated receptors increase human sebum production. J. Invest. Dermatol. 126, 2002-9 (2006)].
The MTT assay is a colorimetric assay for cell viability. MTT [3-(4,5-dimethylthiazol-2-yl)-2-5-diphenyltetrazolium bromide], a yellow tetra-azole dye, is reduced to purple formazan in living cells by NADPH-dependent oxidoreductase enzymes. When the number of viable cells decreases the amount of enzymatic activity and purple color decreases and this can be measured with a spectrophotometer.
(§2) 1-7 and 1-8 are sensory cooling agents on the skin and activators [agonists] of the TRPM8 ion channel protein. […] The indicators used for direct comparison were sebocyte viability measured in the MTT assay and then the ^3H-thymidine incorporation assay.

[2] = test system: forehead skin of human subjects; assay: Sebum secretion of forehead skin (Sebumeter); format: in vivo; conditions: 20 mg/mL on forehead, FIG. 2
Procedure: Sebum is an oily substance secreted by the sebaceous gland. These glands, attached to hair follicles, are abundant on the face and scalp. Increased secretion of sebum, for example during teenage years, and associated with androgen stimulation is associated with acne. […] Sebum secretion was measured here using a Sebumeter®, a standardized instrument based on a mat tape brought into contact with the skin, and then grease spot photometry [CK Electronic, Cologne, Germany].
In nine human subjects the baseline secretion of sebum was 188±19 μg/cm^2. […] This pharmacological effect has not been previously observed with Dapa-compounds such as 1-7. This was a new and unexpected observation.

sebocytes [3] = assay: 3H-thymidine incorporation into sebocytes; format: cell-based, human; conditions: for activity at 10 µM: Homo sapiens, 3 h, uptake into sebocytes, NS = not significant
Procedure: as §1, §2

human sebocytes = assay: Inhibition of sebocyte function in cultured human sebocytes (assay not specified); format: cell-based; conditions: for Inhibition of sebocyte function: 0.1mM
Procedure: as §1, §2

TRPM8 and actin = assay: Non-sebum cellular markers in sebocytes; format: cell-based, human
Description: (§3) There are intracellular biochemical receptors and markers of sebocyte activation and sebum production. Peroxisome proliferator-activated receptors [PPAR] agonists increase sebum production in isolated sebocytes [Trivedi et al. (2006)]. This class of receptors is reduced after 1-8. Similarly, the […] which is linked to lipogenesis in sebocytes, was reduced by 1-8. These effects were specific to the markers of sebum production, as cellular receptors such as TRPM8 and actin were not affected by 1-8.

sebocytes [4] = assay: IGF-1 stimulated lipogenesis in sebocytes (Oil Red O, thin-layer and gas chromatography of lipids); format: cell-based, human
Procedure: as §1, with “132, 2700-8 (2012)].” left out, “Dermatol.” for “Dermatol. 126, 2002-9 (2006)].”
J. Invest. Dermatol. […] Oil Red 0 [Sudan Red 5B] is a diazo dye used for staining neutral triglycerides and lipids on cells.

[5] = test system: Peroxisome proliferator-activated receptors [PPAR]; assay: Marker of sebum production in sebocytes: PPAR; format: cell-based, human
Procedure: as §1, §3

[6] = test system: sterol-response binding protein [SBEP-1]; assay: Marker of sebum production in sebocytes: SREBP-1; format: cell-based, human
Procedure: as §1, §3

T1 sequence (Q7Z2W7 whole entry): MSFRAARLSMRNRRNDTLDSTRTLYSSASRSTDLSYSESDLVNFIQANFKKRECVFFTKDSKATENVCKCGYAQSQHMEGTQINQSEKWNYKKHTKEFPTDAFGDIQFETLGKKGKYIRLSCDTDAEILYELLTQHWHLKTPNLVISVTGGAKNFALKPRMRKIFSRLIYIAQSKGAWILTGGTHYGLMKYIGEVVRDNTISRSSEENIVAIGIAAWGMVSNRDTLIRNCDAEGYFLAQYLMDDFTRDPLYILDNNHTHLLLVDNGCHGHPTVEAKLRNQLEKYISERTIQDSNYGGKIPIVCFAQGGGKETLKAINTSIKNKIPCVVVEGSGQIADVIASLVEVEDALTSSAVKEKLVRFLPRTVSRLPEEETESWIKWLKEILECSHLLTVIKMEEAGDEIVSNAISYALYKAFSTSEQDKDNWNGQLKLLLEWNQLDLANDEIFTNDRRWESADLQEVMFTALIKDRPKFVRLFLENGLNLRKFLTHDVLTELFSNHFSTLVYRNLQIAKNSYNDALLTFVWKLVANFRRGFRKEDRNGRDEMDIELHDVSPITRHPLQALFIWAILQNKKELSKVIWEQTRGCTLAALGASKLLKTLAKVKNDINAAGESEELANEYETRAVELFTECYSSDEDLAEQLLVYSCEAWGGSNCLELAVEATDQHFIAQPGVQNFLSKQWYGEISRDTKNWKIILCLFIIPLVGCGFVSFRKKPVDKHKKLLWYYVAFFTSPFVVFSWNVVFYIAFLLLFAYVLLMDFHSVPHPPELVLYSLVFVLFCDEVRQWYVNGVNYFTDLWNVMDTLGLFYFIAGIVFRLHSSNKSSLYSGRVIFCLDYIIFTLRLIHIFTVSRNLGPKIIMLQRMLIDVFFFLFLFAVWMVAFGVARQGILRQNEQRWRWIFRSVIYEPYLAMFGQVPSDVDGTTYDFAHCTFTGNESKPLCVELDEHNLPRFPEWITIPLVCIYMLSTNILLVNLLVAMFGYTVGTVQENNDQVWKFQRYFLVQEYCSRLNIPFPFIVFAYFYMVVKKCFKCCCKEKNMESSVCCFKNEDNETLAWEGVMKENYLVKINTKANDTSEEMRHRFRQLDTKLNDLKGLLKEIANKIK

Row | Relative Potency to I-menthol (cloned hTRPM8 channel) | Structure (SMILES) | Sensory Quality (zygomatic/forehead skin) | Duration (zygomatic/forehead skin) | Onset (zygomatic/forehead skin) | activity at 10 µM (sebocytes [3]) | other results
1 | 0.3 | CCCCP(=O)(C(C)CC)C(C)CC (stereo not shown) [Code 2-4, 1-disec-butylphosphorylbutane] | cool | 0.3 h | ~1 min |  | 
2 | 2.2 | CCCCCP(=O)(C(C)CC)C(C)CC (stereo not shown) [Code 2-5, 1-disec-butylphosphorylpentane] | cool | 1.1 h | ~1 min | ≥ 98% | 
3 | 4.7 | CCCCCCP(=O)(C(C)CC)C(C)CC (stereo not shown) [Code 2-6, 1-disec-butylphosphorylhexane] | cold | 1.5 h | ~2 min | ≥ 100% | Activity on sebocyte viability (structure-activity summary of Table 6) (sebocytes [1]): absence of activities
4 | 3.4 | CCCCCCCP(=O)(C(C)CC)C(C)CC (stereo not shown) [Code 2-7, 1-disec-butylphosphorylheptane] | cold | 2.4 h | ~2 min | ≥ 85% | Activity on sebocyte viability (structure-activity summary of Table 6) (sebocytes [1]): absence of activities
5 | 2.9 | CCCCCCCCP(=O)(C(C)CC)C(C)CC (stereo not shown) [Code 2-8, 1-disec-butylphosphoryloctane] | cold | 5.6 h | 5 min | ≥ 90% | Activity on sebocyte viability (structure-activity summary of Table 6) (sebocytes [1]): more activity than 2-6 or 2-7

Continued, compound first:

Row | Structure (SMILES) | Relative Potency to I-menthol (cloned hTRPM8 channel) | Sensory Quality (zygomatic/forehead skin) | Duration (zygomatic/forehead skin) | Onset (zygomatic/forehead skin) | activity at 10 µM (sebocytes [3]) | other results
6 | CCCCCP(=O)(C(C)C)C(C)C [Code 1-5, 1-diisopropylphosphorylpentane] | 0.7 | dynamic | 0.5 h | ~1 min |  | 
7 | CCCCCCP(=O)(C(C)C)C(C)C [Code 1-6, 1-diisopropylphosphorylhexane] | 1.6 | dynamic | 1.3 h | ~1 min |  | 
8 | CCCCCCCP(=O)(C(C)C)C(C)C [Code 1-7, 1-diisopropylphosphorylheptane] | 5.4 | dynamic-icy | 3.2 h | ~1 min | ≥ 100% | Sebocyte cell viability as % of controls (FIG. 3) (sebocytes [1]): did not inhibit; Sebum secretion after topical application [2]: significantly decreased; Onset of cooling after application (zygomatic/forehead skin): ≤ 1 min; Duration of localized cooling and refreshing sensations (zygomatic/forehead skin): several hours; Inhibition of sebocyte function (human sebocytes): not seen
9 | CCCCCCCCP(=O)(C(C)C)C(C)C [Code 1-8, 1-diisopropylphosphoryloctane] | 5.4 | cold-icy | 4.0 h | ~1 min | ≥ 78% | TRPM8 and actin levels (TRPM8 and actin): not affected; Photomicrographs of sebocyte cultures (sebocytes [1]; 0.1mM): patchy empty spaces; Sebocyte cell viability as % of controls (FIG. 3) (sebocytes [1]): strongly inhibited; IGF-1 induced increase of lipids in cells (Oil Red O photomicrograph) (sebocytes [4]; IGF-1 50 ng/mL, 0.1mM): inhibited; Squalene and wax esters (thin-layer chromatography and gas-chromatography) (sebocytes [4]; IGF-1 stimulated sebocytes): selectively decreased; Duration of localized cooling and refreshing sensations (zygomatic/forehead skin): several hours; PPAR level [5]: reduced; SBEP-1 level [6]: reduced; Inhibition of sebocyte function (human sebocytes): potent inhibitor
10 | CCCCCCCCCP(=O)(C(C)C)C(C)C [Code 1-9, 1-diisopropylphosphorylnonane] | 4.0 | cool | 2.0 h | ~2 min | ≥ 85% | Activity on sebocyte viability (structure-activity summary of Table 6) (sebocytes [1]): active
11 | CCCCCCCCCCP(=O)(C(C)C)C(C)C [Code 1-10, 1-diisopropylphosphoryldecane] |  |  |  |  | ≥ 100% | Activity on TRPM8 (cloned hTRPM8 channel): low potency; Activity relative to 1-8 in the MTT sebocyte assay (sebocytes [1]): 10,000 x; Sebocyte cell viability as % of controls (FIG. 4) (sebocytes [1]): strongly inhibited; Levels / production of squalene (thin layer chromatography, FIG. 5) (sebocytes [4]; IGF-1 stimulated sebocytes): lowers
12 | CCCCCCCCCCCCP(=O)(C(C)C)C(C)C [Code 1-12, 1-diisopropylphosphoryldodecane] |  |  |  |  | ~40% | Activity on TRPM8 (cloned hTRPM8 channel): low potency; also recorded: very low activity; Activity relative to 1-8 in the MTT sebocyte assay (sebocytes [1]): 10,000 x; Sebocyte cell viability as % of controls (FIG. 4) (sebocytes [1]): strongly inhibited; Levels / production of squalene (thin layer chromatography, FIG. 5) (sebocytes [4]; IGF-1 stimulated sebocytes): effective; also recorded: lowers; Inhibition of 3H-thymidine incorporation into sebocytes (sebocytes [3]): clearly inhibited; Concentration at which fully effective (human sebocytes; sebocytes in culture): 0.01 µM
13 | CC1=C(/C=C/C(C)=C/C=C/C(C)=C\C(=O)O)C(C)(C)CCC1 [cis-retinoic acid, reference compound] |  |  |  |  |  | IGF-1 increased lipids, gel staining (FIG. 5) (sebocytes [4]; IGF-1 stimulated sebocytes): inhibited
14 | CC1=C(/C=C/C(C)=C/C=C/C(C)=C/C(=O)O)C(C)(C)CCC1 [trans-retinoic acid, reference compound] |  |  |  |  |  | IGF-1 increased lipids, gel staining (FIG. 5) (sebocytes [4]; IGF-1 stimulated sebocytes): inhibited
